We go through one compound from patent US20140161342A1, “DENSITY-BASED METHOD OF COMPARING IMAGES AND DETECTION OF MORPHOLOGICAL CHANGES USING THE METHOD THEREOF” (CENTRE NATIONAL DE LA RECHERCHE SCIENTIFIQUE CNRS, priority 2011, published 2014).

Common to all, as to assay type: cell-based, Human
The test system of assay [1] is multivesicular bodies (MVB). The assay can be described thus: Density-based comparison of multivesicular body (MVB) morphology, CD63 stain, micropatterned RPE-1 cells. The settings on record: nocodazole 10 μM, 1 h at 4° C. and 1 h at 37° C., 40 cells of CG, 40 cells of TG. On the procedure: Human RPE-1 cells kept in growth medium were trypsinized and seeded on micropattern-printed coverslips as described in EP 1664266. To depolymerize microtubules, nocodazole was added to a final concentration of 10 μM to TG. TG and CG were both subsequently incubated for 1 h at 4° C. and 1 h at 37° C. Cells were fixed with 4% (wt/vol) paraformaldehyde (PFA) and proceeded for indirect immunofluorescence staining with primary α-CD63 antibodies (Invitrogen) to visualize MVB, α-GM130 antibodies to visualize the Golgi apparatus and α-Sec13 antibodies to visualize ERES as well as fluorophore-coupled secondary antibodies. 3D image stacks of n cells of each condition (TG and CG) were acquired with 100× magnification and Z-series every 0.2 μm. […] The coordinates of the segmented structures from all cells were aligned using the micropattern geometry and the coordinate sample of the TG was compared with the coordinate sample of the CG using the above-described method for each intracellular compartment analyzed.
Parts A and B of FIG. 5 illustrate representative fluorescent images of one cell from CG (designated by “Crtl”) and one cell from TG (designated by “NZ” for nocodazole) stained for MVB. […] As shown in prior art, the steady-sate three-dimensional organization of MVB is constant in micropatterned cells as analyzed here. […]

For assay [2], the system named is Golgi apparatus. The assay can be described thus: Density-based comparison of Golgi apparatus morphology, GM130 stain, micropatterned RPE-1 cells. Conditions: nocodazole 10 μM, 15 cells of CG, 20 cells of TG. On the procedure: (§1) Human RPE-1 cells kept in growth medium were trypsinized and seeded on micropattern-printed coverslips as described in EP 1664266. To depolymerize microtubules, nocodazole was added to a final concentration of 10 μM to TG. TG and CG were both subsequently incubated for 1 h at 4° C. and 1 h at 37° C. Cells were fixed with 4% (wt/vol) paraformaldehyde (PFA) and proceeded for indirect immunofluorescence staining with primary α-CD63 antibodies (Invitrogen) to visualize MVB, α-GM130 antibodies to visualize the Golgi apparatus and α-Sec13 antibodies to visualize ERES as well as fluorophore-coupled secondary antibodies. 3D image stacks of n cells of each condition (TG and CG) were acquired with 100× magnification and Z-series every 0.2 μm. Images were deconvolved and segmented in order to detect signals that are fifteen-fold larger than noise. The coordinates of the segmented structures from all cells were aligned using the micropattern geometry and the coordinate sample of the TG was compared with the coordinate sample of the CG using the above-described method for each intracellular compartment analyzed.
Parts A and B of FIG. 6 illustrate representative fluorescent images of one cell from CG (designated by “Crtl”) and one cell from TG (designated by “NZ” for nocodazole) stained for the Golgi apparatus. […]

The subject of assay [3] is endoplasmic reticulum exit sites (ERES). Description: Density-based comparison of endoplasmic reticulum exit sites (ERES), Sec13 stain, micropatterned RPE-1 cells. Conditions: nocodazole 10 μM, 15 cells of CG, 11 cells of TG. On the procedure: as §1
Parts A and B of FIG. 7 illustrate representative fluorescent images of one cell from CG (designated by “Crtl”) and one cell from TG (designated by “NZ” for nocodazole) stained for ERES. […]

Assay [4] has as its system multivesicular bodies (MVB). The assay can be described thus: Live cell analysis of MVB in unconstrained EGFP-CD63-expressing RPE-1 cells. The settings on record: nocodazole 20 μM, last six time frames after addition. On the procedure: In this example, morphological changes in the steady-state organization of MVB were monitored in a time period between two instants t1 and t2 when using a drug treatment. Thus, the density-based method of the present invention is applied to life cell analysis. More precisely, MVB were analyzed in unconstrained cells before and after treatment with nocodazole, illustrating that the present invention is not limited to the comparison of constrained cells but can also apply to the comparative study of unconstrained cells.
EGFP-CD63-expressing stable cells (generated by transfection of the plasmid pEGFP-CD63, Ostrowski et al. NATURE CELL BIOLOGY, January 2010) into RPE-1 cells and selection with 500 μg/ml geneticin) were seeded on iwaki glass base dishes (Asahi Glass) for live cell observation. To depolymerize microtubules, nocodazole (NZ) was added to a final concentration of 20 μM. […] The first two groups contained images in the absence of the drug (CG1 and CG2) and the second two groups contained images in the presence of the drug (TG1 and TG2) recorded after the addition of the drug. […]
Groups CG1 and CG2 are non-treated control groups with 1080 and 1002 detected CD63-positive structures that were acquired before addition of the drug.
Groups TG1 and TG2 are treated test groups containing 1019 and 801 structures that were recorded after the addition of the drug. […]

In assay [5] the test system is microtubules. The assay can be described thus: Density-based comparison of microtubules (β-tubulin stain), micropatterned RPE-1 cells. Conditions: nocodazole; 16 cells of CG, 16 cells of TG; tubulin structures. Details: dose or concentration left out as unconfirmed.
Procedure: Human RPE-1 cells kept in growth medium were trypsinized and seeded on micropattern-printed coverslips as described in EP 1664266. To depolymerize microtubules, nocodazole was added to a final concentration of 10 M to TG. TG and CG were both subsequently incubated for 1 h at 4° C. and 1 h at 37° C. Cells were fixed with 4% (wt/vol) paraformaldehyde (PFA) and proceeded for indirect immunofluorescence staining with primary β-tubulin antibodies (Sigma-Aldrich) to visualize microtubules and fluorophore-coupled secondary antibodies.
3D image stacks of n cells of each condition (TG and CG) were acquired with 100× magnification and Z-series every 0.2 m. Images were deconvolved and segmented in order to detect signals that are larger than noise. To represent continuous structures (microtubules and Rab8-marked membranes domains) by a cloud of coordinates, we “cut” them in several small structures by increasing the watershed during segmentation. The coordinates of the segmented structures from all cells were aligned using the micropattern geometry and the coordinate sample of the TG was compared with the coordinate sample of the CG using the above-described method for each intracellular compartment analyzed.
Each coordinate stands for one fluorescent fragment. […]

The structures appear in SMILES notation.

Consider `COC(=O)Nc1nc2ccc(C(=O)c3cccs3)cc2[nH]1` [nocodazole], for which the “P2D-value, comparison TG/CG” value in assay [1] is reported as 1.589*10^−5; in assay [2], 0.9524*10^−2; in assay [3], 0.3416*10^−3; in assay [5], 6.5862*10^−41. Further, the “P3D-value, comparison TG/CG” value in assay [1] is listed as 1.280*10^−11; in assay [2], 1.8741*10^−2; in assay [3], 0.1118*10^−6; in assay [5], 2.7758*10^−228. For the same compound, in assay [4], the “P2D-value, non-treated group CG1 vs treated group TG2” value is reported as 4.00*10^−6. In assay [4], the “P3D-value, non-treated group CG1 vs treated group TG2” value was 4.84*10^−6.
